Legend:
[1] = test system: DOI-induced headshakes in male NIH Swiss mice; test: DOI-Induced Headshake Model; type: in vivo; settings: for % Inhibition (% Inh.) of DOI-induced headshakes: 45 min before DOI 5 mg/kg ip, percent suppression compared to vehicle group; for maximal suppression of DOI-induced headshakes: at the 100 mg/kg dose, oral, DOI 5 mg/kg ip
Description: DOI-Induced Headshake Model
The administration of DOI to rodents has been used as a model for assessing potential efficacy of an atypical antipsychotic in treating psychosis and schizophrenia in certain patient populations with direct or indirect defects in the serotonin system.
Male NIH Swiss mice weighing 18-21 grams at the time of purchase were obtained from Harlan Sprague Dawley, Inc. (Prattville, Ala.). They were individually housed in wire-mesh cages at an ambient temperature of 21 to 23° C. with an automated 12/12 hour light/dark cycle. All […] had free access to 5001 Rodent Chow (Purina Mills, Brentwood, Mo.) and water except during experimental sessions. The principles of laboratory animal care (NIH publication No. 85-23, revised 1985) were followed.
DOI (purchased from Sigma, St. Louis, Mo.) was dissolved in saline, neutralized to pH ˜7.4 and injected ip in a volume of 10 ml/kg body weight. Injection solution was freshly prepared 30-45 minutes before each experiment. Methylcellulose (0.5%, Sigma) was used as oral dosing vehicle. All experiments were performed between 10 am and 4 pm during the day. The mice were fasted the evening before the experiment.
An enantiomer of Formula (Ib), Formula (IIb) or vehicle was orally administered at various concentrations ranging from 10 μg to 100 mg/kg. The animals were then injected with either saline or DOI (ip, 5 mg/kg) 45 minutes after the administration of either vehicle or an enantiomer of Formula (Ib) or Formula (IIb). Immediately upon DOI administration, the mice were placed in isolated observation cylinders made of a clear polycarbonate (27 cm in diameter and 55 cm deep). The number of randomized headshakes (or twitches) was recorded by an experienced observer using a hand held mechanical counter. Headshake responses were counted in consecutive 10-min periods.
DOI-Induced Headshake Model Analysis
All data are expressed as the mean ±SEM. The average of the headshakes in the vehicle group was expressed as 100%. The DOI-induced headshakes in groups treated with an enantiomer of Formula (Ib) and Formula (IIb) were expressed as percent suppression compared to the vehicle group. Statistical analysis for significant differences was done with the Student t test.

[2] = test system: PPI-disruptive effects of PCP in Sprague-Dawley-derived male rats; test: Pre-Pulse Inhibition Model (PCP-disrupted PPI); type: in vivo
Description: Pre-Pulse Inhibition Model
The restorative effect of an enantiomer of Formula (Ib) on Pre-Pulse Inhibition (PPI) was compared to the disruptive PPI effect of phencyclidine (PCP). PCP is a NMDA antagonist having a wide range of psychotominetic effects in humans. The PPI disruption caused by PCP can be restored by some atypical antipsychotics, such as clozapine, olanzapine, and quetiapine.
Sprague-Dawley-derived male rats were housed in groups of two or three and maintained in a temperature-controlled environment on a 12 h:12 h light cycle. Except during behavioral testing, animals were given free access to food and water. Animals were handled daily for several days to desensitize them to handling stress before behavioral analysis.
An SR-LAB Startle System was used to control auditory stimuli and background noise level and to monitor startle response (±one msec). The average amplitude of the response was the main dependent variable used. Animals (n=20) were grouped according to a baseline mean PPI determined in a brief matching session. Baseline mean PPI testing consisted of 12 noise bursts at 118 dB[A] over a 40 msec time period followed by 3 noise bursts at 12 dB[A] over a 40 msec time period two days before testing with drug. […]
Data were collected online simultaneously from multiple startle chambers and analyzed using the Statview 5.0 statistical package.

| Compound | % Inhibition (% Inh.) of DOI-induced headshakes ([1]; 0.01 mg/Kg oral) [%] | % Inhibition (% Inh.) of DOI-induced headshakes ([1]; 0.1 mg/Kg oral) [%] | % Inhibition (% Inh.) of DOI-induced headshakes ([1]; 1 mg/Kg oral) [%] | % Inhibition (% Inh.) of DOI-induced headshakes ([1]; 10 mg/Kg oral) [%] | % Inhibition (% Inh.) of DOI-induced headshakes ([1]; 30 mg/Kg oral) [%] | % Inhibition (% Inh.) of DOI-induced headshakes ([1]; 100 mg/Kg oral) [%] | maximal suppression of DOI-induced headshakes [1] [%] | dose-dependent reduction in startle magnitude ([2]; 5, 15 and 45 mg/kg p.o.) | block of the PPI-disruptive effects of PCP ([2]; acute treatment 5, 15 and 45 mg/kg p.o., 110 min before PCP 1.5 mg/kg s.c.) |
| --- | --- | --- | --- | --- | --- | --- | --- | --- | --- |
| NC(=O)OC[C@H](OC(N)=O)c1ccccc1Cl [Formula (IIb)] | 1 | 11 | 4 | 41 | 36 | 43 | 43 | – | – |
| NC(=O)OC[C@@H](O)c1ccccc1Cl [Formula (Ib)] | 11 | 20 | 41 | 63 | 58 | 76 | 76 | lacked an orderly dose-dependent reduction in startle magnitude | failed to significantly block the PPI-disruptive effects of PCP |

Reference: US6541513B2, “Carbamate compounds for use in preventing or treating psychotic disorders” (Ortho-McNeil Pharmaceutical, Inc., priority 2001, dated 2003)
